Drawing on patent US8759334B2, “Compounds useful for the treatment of metabolic and inflammatory diseases” (Galapagos NV, priority 2011, dated 2014), this text covers IC50 for 21 compounds.

In assay [1] the target is T1, GPR43 (Homo sapiens, UniProt O15552).
T1 construct: expressed in transfected cells
T1 sequence (O15552 1-330): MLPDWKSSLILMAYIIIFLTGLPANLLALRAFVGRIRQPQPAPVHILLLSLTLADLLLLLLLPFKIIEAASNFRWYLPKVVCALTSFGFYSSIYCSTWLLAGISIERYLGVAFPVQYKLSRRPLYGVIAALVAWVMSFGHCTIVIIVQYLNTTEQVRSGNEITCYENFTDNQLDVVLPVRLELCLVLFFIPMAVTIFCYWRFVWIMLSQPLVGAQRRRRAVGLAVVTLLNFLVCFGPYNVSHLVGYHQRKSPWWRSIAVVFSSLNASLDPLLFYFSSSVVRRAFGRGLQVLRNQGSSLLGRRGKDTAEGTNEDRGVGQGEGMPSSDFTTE
The experiment in a line: Calcium mobilization assay with probenecid. The assay is classed as cell-based. Conditions: GPR43 stably expressing cells; triggered with sodium acetate at EC80; 2.5 mM probenecid; read-out: GPR43 assay with probenicid IC50. In short, it runs like this:
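Cells stably expressing GPR43 plated overnight at 37 °C, then loaded 2 h with Calcium 4 dye plus 2.5 mM probenecid. […]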

In assay [2] the target is T1, GPR43. The experiment in a line: Calcium mobilization assay without probenecid. The assay is classed as cell-based. The settings on record: GPR43 stably expressing cells, triggered with sodium acetate at EC80, read-out: GPR43 assay without probenicid IC50. As for the experimental part: The following assay can be used for determination of GPR43 activation. The assay measures intracellular calcium release induced by activation of GPR43. On day 1, GPR43 stably expressing cells were detached with mild trypsinization (Trypsin, 0.25% with EDTA 4Na, 5× diluted in PBS) centrifuged at 1000 rpm for 5 min and resuspended at 6.000 cells/25 μL medium (DMEM supplemented with 10% FBS, 10 μg/mL puromycin and 1% Pen/Strep). The cells were distributed in poly-D-lysine coated 384 well plates (black with clear bottom, 25 μL/well) and incubated overnight at 37° C. 10% CO2. On day 2, 25 μL of a fluorescent Ca^2+ indicator (Calcium 4 assay; Molecular Devices) was added on top of the cells and incubated for 2 h at 37° C. Subsequently, compounds at increasing concentration (10 μL/well) were added to the plate and incubated for 15 min at 37° C. Finally the cells were triggered with sodium acetate at EC80 concentration (concentration which gives 80% of the activity of the GPR43) and the Ca-flux was measured simultaneously to the trigger injection on a fluorescence plate reader (FlexStation3), this measures the antagonist activity of the compounds. To measure agonist activity of the compounds, compound was added to the well and the Ca-flux was measured simultaneously to the injection of compound.

With `Cc1cc(C)cc(CC(=O)N2CCC2(C)C(=O)N(CC(=O)O)Cc2ccc(Cl)cc2)c1` (stereo not drawn) [Compound 49, ((4-Chloro-benzyl)-{1-[2-(3,5-dimethyl-phenyl)-acetyl]-2-methyl-azetidine-2-carbonyl}-amino)-acetic acid], the IC50 at GPR43 [1] and on GPR43 [2] was 101 to 500 nM each time.

With `CN(Cc1ccc(Cl)cc1)C(=O)C1(C)CCN1C(=O)Cc1ccc(Cl)cc1` (stereo not drawn) [Compound 11], the IC50 at GPR43 [1] and on GPR43 [2] was over 1000 nM in each case.

As for `COC(=O)c1cccc(-c2ccc(CC(=O)N3CCC3(C)C(=O)N(C)Cc3ccc(Cl)cc3)cc2)c1` (stereo not drawn) [Compound 26, methyl 4′-(2-(2-((4-chlorobenzyl)(methyl)carbamoyl)-2-methylazetidin-1-yl)-2-oxoethyl)biphenyl-3-carboxylate], the IC50 on GPR43 [1] and on GPR43 [2] was over 1000 nM in each case.

In the case of `CCN(Cc1ccc(Cl)cc1)C(=O)C1(C)CCN1C(=O)Cc1cc(C)cc(C)c1` (stereo not drawn) [Compound 35, 1-[2-(3,5-Dimethyl-phenyl)-acetyl]-2-methyl-azetidine-2-carboxylic acid (4-chloro-benzyl)-ethyl-amide], the 50% inhibitory concentration (IC50) on GPR43 [1] and at GPR43 [2] was 101 to 500 nM throughout.

Take `COC(=O)CN(Cc1cccc(Cl)c1)C(=O)C1(C)CCN1C(=O)Cc1csc2ccccc12` (stereo not drawn) [Compound 60, [[1-(2-Benzo[b]thiophen-3-yl-acetyl)-2-methyl-azetidine-2-carbonyl]-(3-chloro-benzyl)-amino]acetic acid methyl ester]: the IC50 on GPR43 [1] was 501 to 1000 nM; at GPR43 [2], over 1000 nM.

Turning to `COCCN(Cc1ccc(Cl)cc1)C(=O)C1(C)CCN1C(=O)Cc1cc(C)cc(C)c1` (stereo not drawn) [Compound 56, 1-[2-(3,5-Dimethyl-phenyl)-acetyl]-2-methyl-azetidine-2-carboxylic acid (4-chloro-benzyl)-(2-methoxy-ethyl)-amide], the half-inhibitory concentration (IC50) at GPR43 [1] and on GPR43 [2] was over 1000 nM each time.

Turning to `Cc1cc(C)cc(CC(=O)N2CCC2(C)C(=O)N(C)Cc2ccc(Cl)cc2Cl)c1` (stereo not drawn) [Compound 36, 1-[2-(3,5-Dimethyl-phenyl)-acetyl]-2-methyl-azetidine-2-carboxylic acid (2,4-dichloro-benzyl)-methyl-amide], the IC50 at GPR43 [1] and on GPR43 [2] was over 1000 nM each time.

As for `Cc1cc(C)cc(CC(=O)N2CCC2(C)C(=O)N(CC(=O)N2CCOCC2)Cc2ccc(Cl)cc2)c1` (stereo not drawn) [Compound 83, 1-[2-(3,5-Dimethyl-phenyl)-acetyl]-2-methyl-azetidine-2-carboxylic acid (4-chloro-benzyl)-(2-morpholin-4-yl-2-oxo-ethyl)-amide], the IC50 at GPR43 [1] and on GPR43 [2] was over 1000 nM throughout.

In the case of `CN(Cc1ccc(Cl)cc1)C(=O)C1(C)CCN1C(=O)Cc1ccc(-c2ccccc2)cc1` (stereo not drawn) [Compound 20, 1-(2-Biphenyl-4-yl-acetyl)-2-methyl-azetidine-2-carboxylic acid (4-chloro-benzyl)-methyl-amide], the IC50 on GPR43 [1] and on GPR43 [2] was over 1000 nM each time.

With `O=C(O)CN(Cc1ccc(Cl)cc1)C(=O)C1(CO)CCN1C(=O)Cc1csc2ccccc12` (stereo not drawn) [Compound 85, [[1-(2-Benzo[b]thiophen-3-yl-acetyl)-2-hydroxymethyl-azetidine-2-carbonyl]-(4-chloro-benzyl)-amino]-acetic acid], the IC50 on GPR43 [1] is 101 to 500 nM; on GPR43 [2], over 1000 nM.

With `Cc1cc(C)cc(CC(=O)N2CCC2(C)C(=O)N(C)Cc2ccc(Cl)c(F)c2)c1` (stereo not drawn) [Compound 42, 1-[2-(3,5-Dimethyl-phenyl)-acetyl]-2-methyl-azetidine-2-carboxylic acid (4-chloro-3-fluoro-benzyl)-methyl-amide], the half-maximal inhibitory concentration (IC50) on GPR43 [1] and on GPR43 [2] was over 1000 nM each time.

For `Cc1cc(C)cc(CC(=O)N2CCC2(C)C(=O)N(CC(=O)N(C)C)Cc2ccc(Cl)cc2)c1` (stereo not drawn) [Compound 54, 1-[2-(3,5-Dimethyl-phenyl)-acetyl]-2-methyl-azetidine-2-carboxylic acid (4-chloro-benzyl)-dimethylcarbamoylmethyl-amide], the figures for the IC50 on GPR43 [1] and on GPR43 [2] were over 1000 nM and 501 to 1000 nM, respectively.

For the compound `Cc1cc(C)cc(CC(=O)N2CCC2(C)C(=O)N(C)Cc2ccc(C(C)(C)C)cc2)c1` (stereo not drawn) [Compound 32, 1-[2-(3,5-Dimethyl-phenyl)-acetyl]-2-methyl-azetidine-2-carboxylic acid (4-tert-butyl-benzyl)-methyl-amide], the IC50 on GPR43 [1] and at GPR43 [2] was over 1000 nM each time.

Turning to `Cc1cc(C)cc(CC(=O)N2CCC2(C)C(=O)N(C)Cc2ccc(C)cc2C)c1` (stereo not drawn) [Compound 33, 1-[2-(3,5-Dimethyl-phenyl)-acetyl]-2-methyl-azetidine-2-carboxylic acid (2,4-dimethyl-benzyl)-methyl-amide], the results for the IC50 on GPR43 [1] and at GPR43 [2] were over 1000 nM and 501 to 1000 nM, respectively.

For the compound `CC1(C(=O)NCc2ccc(Cl)cc2)CCN1C(=O)C1(c2ccc(Cl)cc2Cl)CC1` (stereo not drawn) [Compound 52, N-(4-chlorobenzyl)-1-(1-(2,4-dichlorophenyl)cyclopropanecarbonyl)-2-methylazetidine-2-carboxamide], the half-inhibitory concentration (IC50) on GPR43 [1] and at GPR43 [2] was over 1000 nM in each case.

For the compound `Cc1cc(C)cc(CC(=O)N2CCC2(C)C(=O)N(Cc2ccc(Cl)cc2)[C@H](C)C(=O)O)c1` (stereo partly drawn) [Compound 74, (R)-2-((4-Chloro-benzyl)-{1-[2-(3,5-dimethyl-phenyl)-acetyl]-2-methyl-azetidine-2-carbonyl}-amino)-propionic acid], the IC50 at GPR43 [1] and at GPR43 [2] was over 1000 nM each time.

In the case of `Cc1cc(C)cc(CC(=O)N2CCC2(C)C(=O)N(CC(=O)NC(C)C)Cc2ccc(Cl)cc2)c1` (stereo not drawn) [Compound 80, 1-[2-(3,5-Dimethyl-phenyl)-acetyl]-2-methyl-azetidine-2-carboxylic acid (4-chloro-benzyl)-(isopropylcarbamoyl-methyl)-amide], the IC50 on GPR43 [1] and on GPR43 [2] was over 1000 nM each time.

As for `CN(Cc1ccc(C(F)(F)F)cc1)C(=O)C1(C)CCN1C(=O)Cc1ccc(Cl)cc1Cl` (stereo not drawn) [Compound 45, 1-[2-(2,4-Dichloro-phenyl)-acetyl]-2-methyl-azetidine-2-carboxylic acid methyl-(4-trifluoromethyl-benzyl)-amide], the half-inhibitory concentration (IC50) at GPR43 [1] and on GPR43 [2] was over 1000 nM throughout.

On to `COC(=O)[C@H](C)N(Cc1ccc(Cl)cc1)C(=O)C1(C)CCN1C(=O)Cc1cc(C)cc(C)c1` (stereo partly drawn) [Compound 55, (S)-2-((4-Chloro-benzyl)-{1-[2-(3,5-dimethyl-phenyl)-acetyl]-2-methyl-azetidine-2-carbonyl}-amino)-propionic acid methyl ester], for which the IC50 at GPR43 [1] and on GPR43 [2] was over 1000 nM in each case.

`CC1(C(=O)N(CC(=O)O)Cc2ccc(Cl)cc2)CCN1C(=O)Cc1coc2ccccc12` (stereo not drawn) [Compound 78, [[1-(2-Benzofuran-3-yl-acetyl)-2-methyl-azetidine-2-carbonyl]-(4-chloro-benzyl)-amino]-acetic acid]: the 50% inhibitory concentration (IC50) at GPR43 [1] and at GPR43 [2] was 101 to 500 nM throughout.

As for `Cc1cccc(CN(CC(=O)O)C(=O)C2(C)CCN2C(=O)Cc2csc3ccccc23)c1` (stereo not drawn) [Compound 69, [[1-(2-Benzo[b]thiophen-3-yl-acetyl)-2-methyl-azetidine-2-carbonyl]-(3-methyl-benzyl)-amino]-acetic acid], the IC50 at GPR43 [1] was 501 to 1000 nM; on GPR43 [2], over 1000 nM.
